The results in this text go back to patent US20100159449A1, “Continuous Assay Method for Measuring Receptor- and Ion Channel-Mediated Calcium Response and Subsequent Gene Expression” (NOACELL SCIENCE CO., LTD., priority 2006, published 2010).

In experiment [1] the test system is purine receptors. The experiment can be described thus: cAMP-responding (CRE) Renilla luciferase reporter assay in CHO cells expressing purine receptors. It is filed as cell-based. Particulars: ATP 10^-3 to 10^-9 M, six hours later, EnduRen substrate (FIG. 4). How it is done: (§1) To begin with, plasmids (pcDNA MtAEQ, pcDNA Gα16, and pGL3 CRE-Renilla) were introduced into CHO cells. […] The results are graphed in FIGS. 3 and 4.
(§2) In detail, a CHO cell line (ATCC-deposited cells) that expresses purine receptors was seeded into 10 cm^2 Petri dishes at a 1.5×10^5 cells/ml cellular concentration.
(§3) The next day, 2.2 μg Gα16 (pcDNA Gα16), 3 μg aequorin-expressing plasmids (pcDNA MtAequorin), and 3 μg cAMP-responding Renilla luciferase plasmids (pGL3 CRE-Renilla) were transfected into each Petri dish employing 18 μL of FuGENE® 6 (by Roche Diagnostics).
(§4) The following day, 400 μL of trypsin/EDTA solution was added to the Petri dishes, and the cells were dissociated and suspended in 13 mL of DMEM/F12 FCS nutrient broth. […] Thereafter culturing was continued, and the results six hours later of measuring the activity of Renilla luciferase with the ARVO were diagrammed (FIG. 4). […] It will be understood that, with no induction of cAMP-mediated Renilla luciferase occurring, the purine receptors were Gq-coupled GPCRs.

The subject of experiment [2] is purine receptors. Description: aequorin-mediated calcium response (flash luminescence) in transfected CHO cells. It is filed as cell-based. Particulars: ATP 10^-3 to 10^-9 M, 30 seconds after addition, EnduRen or wildtype coelenterazine as substrate (FIG. 9). The protocol: as §1, §2, §3, §4
Wildtype coelenterazine and, as a stable substrate, EnduRen™ were employed as luminescent substrates for enzymes, and the continuous-measurement regimes were compared. Plasmids were introduced into CHO cells. […]

The target of experiment [3] is dopamine receptors (D2RS) (Homo sapiens, UniProt P14416). Particulars: D2RS-expressing CHO cells; dopamine 10^-3 to 10^-9 M; following day forskolin added, six hours culturing (FIG. 8).
Chain of dopamine receptors (D2RS) (P14416 1-414 isoform P14416-2): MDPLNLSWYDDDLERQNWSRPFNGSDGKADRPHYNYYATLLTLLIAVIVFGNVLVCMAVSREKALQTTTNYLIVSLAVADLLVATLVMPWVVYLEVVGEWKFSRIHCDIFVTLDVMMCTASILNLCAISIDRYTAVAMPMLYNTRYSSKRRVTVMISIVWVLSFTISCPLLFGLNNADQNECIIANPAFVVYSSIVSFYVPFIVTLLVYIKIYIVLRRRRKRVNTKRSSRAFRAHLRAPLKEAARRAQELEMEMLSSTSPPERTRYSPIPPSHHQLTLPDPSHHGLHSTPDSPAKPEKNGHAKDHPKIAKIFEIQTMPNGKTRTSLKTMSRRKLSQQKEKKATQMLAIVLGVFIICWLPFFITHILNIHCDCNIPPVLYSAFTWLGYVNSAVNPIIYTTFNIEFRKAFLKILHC
Method: To begin with, plasmids were introduced into dopamine-receptor (D2RS) expressing cells. Following an overnight culturing, EnduRen™ was added as a substrate, the combination was cultivated four hours, and from 10^−3 to 10^−9 M sample (dopamine) was added.
In detail, dopamine receptors (D2RS) were transfected into a CHO cell line (ATCC-deposited cells), and, in the same manner as in Embodiment 1, Gα16, aequorin-expressing plasmids, and cAMP-responding Renilla luciferase plasmids were transfected into the stably expressing cell line and the cell suspension solution was adjusted.
The following day, 10 μL of 10^−5 M forskolin was added, and culturing was continued for six hours. The results of measuring the activity of Renilla luciferase were diagrammed (FIG. 8). In FIG. 8, the vertical axis indicates the per-second luminescent intensity (count per second), and the horizontal axis, the dopamine concentration.
In experiment [4] the target is serotonin receptor (5HT2A) (Homo sapiens, UniProt P28223). Description: cAMP-responding (CRE) Renilla luciferase reporter assay in serotonin-receptor expressing CHO cells. As to conditions: 5HT2A-expressing CHO cells; serotonin 2.5x10^-6 to 2.5x10^-12 M; culturing six hours; EnduRen substrate (FIG. 6). The class given is cell-based. On the technique in general: Reporter assays use an easily measured gene product as a stand-in for the process of interest.
Chain of serotonin receptor (5HT2A) (P28223 whole entry, species assumed): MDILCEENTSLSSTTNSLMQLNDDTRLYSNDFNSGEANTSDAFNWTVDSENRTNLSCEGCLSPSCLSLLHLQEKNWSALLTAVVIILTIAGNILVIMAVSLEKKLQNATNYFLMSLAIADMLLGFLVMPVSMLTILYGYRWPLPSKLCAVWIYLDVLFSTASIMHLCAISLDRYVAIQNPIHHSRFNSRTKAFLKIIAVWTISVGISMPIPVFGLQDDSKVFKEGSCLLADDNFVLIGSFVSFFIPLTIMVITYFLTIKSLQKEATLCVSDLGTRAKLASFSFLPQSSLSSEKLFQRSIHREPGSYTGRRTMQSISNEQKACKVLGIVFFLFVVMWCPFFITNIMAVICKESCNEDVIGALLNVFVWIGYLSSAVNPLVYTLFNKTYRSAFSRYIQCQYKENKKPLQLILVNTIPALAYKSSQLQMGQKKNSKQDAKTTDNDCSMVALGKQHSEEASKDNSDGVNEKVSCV
Method: To begin with, plasmids (pcDNA MtAEQ, pcDNA Gα16, and pGL3 CRE-Renilla) were introduced into serotonin-receptor (5HT2A) expressing cells. Following an overnight culturing, EnduRen™ was added as a substrate, the combination was cultivated four hours, and from 2.5×10^−6 to 2.5×10^−12 M sample (serotonin) was added. For 30 seconds directly post-addition, the aequorin-mediated luminescence was continuously measured.
In detail, a serotonin receptor (5HT2A) was transfected into a CHO cell line (ATCC-deposited cells), and, in the same manner as in Embodiment 1, Gα16, aequorin-expressing plasmids, and cAMP-responding Renilla luciferase plasmids were transfected into the stably expressing cell line and the cell suspension solution was adjusted.
As a stable substrate, 30 μm EnduRen™ was added, and after four hours' culturing, 90 μL of the cell suspension solution was added into each well of a 96-well plate into which 10 μL serotonin hydrochloride as serotonin-receptor ligands had been added at 2.5×10^−6 to 2.5×10^−12 M concentration. Results of measuring the change in luminescent intensity for 30 seconds immediately following the suspension addition, employing the ARVO luminometer by Berthold Technologies GmbH, were diagrammed (FIG. 5). In FIG. 5, the vertical axis indicates the per-second luminescent intensity (count per second), and the horizontal axis, the measuring time (seconds). […]

Counter-ions that a name gives are not always drawn.

As for `Nc1ncnc2c1ncn2[C@@H]1O[C@H](COP(=O)([O-])OP(=O)([O-])OP(=O)(O)O)[C@@H](O)[C@H]1O.O.[Na+].[Na+]` [ATP, adenosine 5′-triphosphate disodium hydrate], in the experiment on purine receptors [1], the “induction of cAMP-mediated Renilla luciferase” value is “no induction”. The “ATP-stimulated calcium response by aequorin luminescence” value in the experiment with purine receptors [2] is reported as “calcium response can be measured”. On to `Cl.NCCc1ccc(O)c(O)c1` [dopamine, dopamine hydrochloride], for which, in experiment [3], the “forskolin-stimulated activity of Renilla luciferase” value is “declined”.

`NCCc1c[nH]c2ccc(O)cc12` [serotonin, serotonin hydrochloride]: the “cAMP-mediated increase in (induction of) Renilla luciferase” value in experiment [4] was “increase in (induction of) Renilla luciferase was confirmed”.
